Results taken from ChEMBL document CHEMBL1201862, “PubChem BioAssay data set” (2004).
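1) Cells in 96-well plates. 2) Compound, 48 h, 5 concentrations. 3) Linear interpolation between surrounding doses. 4) Unreached endpoint = highest concentration. Here, GI50 denotes the concentration required for 50% inhibition of growth.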 Active and inactive are the calls of the source. No stated cut-off is given here; in the data, active = GI50 up to about 1.1 µM and inactive = higher.

Legend:
Assay in all cases: DTP human tumour cell line panel, 48 h
SK-MEL-28 = system: SK-MEL-28
HCC 2998 = system: HCC 2998
A549 = system: A549
HOP-62 = system: HOP-62
HT-29 = system: HT-29
MDA-N = system: MDA-N
NCI-H226 = system: NCI-H226
NCI-H460 = system: NCI-H460
COLO 205 = system: COLO 205
RXF 393 = system: RXF 393
TK-10 = system: TK-10
SF-539 = system: SF-539
SR = system: SR
HL-60 = system: HL-60
KM12 = system: KM12
MDA-MB-435 = system: MDA-MB-435
LOX IMVI = system: LOX IMVI
U-251 = system: U-251
HCT-15 = system: HCT-15
OVCAR-4 = system: OVCAR-4

SMILES	GI50 (SK-MEL-28)	GI50 (HCC 2998)	GI50 (A549)	GI50 (HOP-62)	GI50 (HT-29)	GI50 (MDA-N)	GI50 (NCI-H226)	GI50 (NCI-H460)	GI50 (COLO 205)	GI50 (RXF 393)	GI50 (TK-10)	GI50 (SF-539)	GI50 (SR)	GI50 (HL-60)	GI50 (KM12)	GI50 (MDA-MB-435)	GI50 (LOX IMVI)	GI50 (U-251)	GI50 (HCT-15)	GI50 (OVCAR-4)
COc1ccc(/N=c2\ssc(C(=S)Nc3ccc(OC)cc3)c2S)cc1	6.68 µM (inactive)	32.4 µM (inactive)	83.6 µM (inactive)	> 100 µM (inactive)	> 100 µM (inactive)	> 100 µM (inactive)	> 100 µM (inactive)	39.6 µM (inactive)	> 100 µM (inactive)	> 100 µM (inactive)	> 100 µM (inactive)	> 100 µM (inactive)	> 100 µM (inactive)	36.3 µM (inactive)	> 100 µM (inactive)	> 100 µM (inactive)	> 100 µM (inactive)	75.7 µM (inactive)	64.9 µM	> 100 µM (inactive)
CC(=O)c1ccc(Br)cc1NC1=CC(=O)c2ncccc2C1=O	6.79 µM (inactive)	3.22 µM (inactive)	2.4 µM (inactive)	3.47 µM (inactive)	3.24 µM (inactive)	1.81 µM (inactive)	3.64 µM (inactive)	1.12 µM (active)	3.18 µM (inactive)	5.13 µM (inactive)	17.6 µM (inactive)	2.56 µM (inactive)	2.22 µM (inactive)	1.64 µM (inactive)	1.83 µM (inactive)	1.69 µM (inactive)	5.79 µM (inactive)	6.22 µM (inactive)	2.69 µM	1.83 µM (inactive)
CCCN(CCC)C(=S)Sc1nc(C)nc(N2CCN(c3nc(C)nc(SC(=S)N(CCC)CCC)c3[N+](=O)[O-])CC2)c1[N+](=O)[O-]	15.3 µM (inactive)	16.5 µM (inactive)	20.7 µM (inactive)	29.4 µM (inactive)	2.07 µM (inactive)	8.45 µM (inactive)	21.8 µM (inactive)	23.9 µM (inactive)	0.262 µM (active)	4.19 µM (inactive)	20.1 µM (inactive)	26.8 µM (inactive)	1.07 µM (active)	3.1 µM (inactive)	14.2 µM (inactive)	4.82 µM (inactive)	0.421 µM (active)	6.5 µM (inactive)	9.4 µM	17.3 µM (inactive)
O=C(NC1CCCCC1)N1CCNC1=S	> 100 µM (inactive)	> 100 µM (inactive)	> 100 µM (inactive)	> 100 µM (inactive)	> 100 µM (inactive)	> 100 µM (inactive)	45.3 µM (inactive)	> 100 µM (inactive)	> 100 µM (inactive)	7.71 µM (inactive)	> 100 µM (inactive)	65.6 µM (inactive)	> 100 µM (inactive)	> 100 µM (inactive)	> 100 µM (inactive)	> 100 µM (inactive)	> 100 µM (inactive)	1.91 µM (inactive)	> 100 µM	> 100 µM (inactive)
CN(C)CC1CN/C(=N\C(=O)Nc2ccccc2)O1 (stereo not given)	> 100 µM (inactive)	> 100 µM (inactive)	> 100 µM (inactive)	> 100 µM (inactive)	> 100 µM (inactive)	> 100 µM (inactive)	> 100 µM (inactive)	> 100 µM (inactive)	> 100 µM (inactive)	> 100 µM (inactive)	> 100 µM (inactive)	> 100 µM (inactive)	> 100 µM (inactive)	> 100 µM (inactive)	> 100 µM (inactive)	> 100 µM (inactive)	> 100 µM (inactive)	> 100 µM (inactive)	> 100 µM	> 100 µM (inactive)
Oc1nnnc2c1sc1ncccc12	> 100 µM (inactive)	> 100 µM (inactive)	> 100 µM (inactive)	> 100 µM (inactive)	> 100 µM (inactive)	> 100 µM (inactive)	> 100 µM (inactive)	> 100 µM (inactive)	> 100 µM (inactive)	> 100 µM (inactive)	> 100 µM (inactive)	> 100 µM (inactive)	5.7 µM (inactive)	> 100 µM (inactive)	> 100 µM (inactive)	> 100 µM (inactive)	> 100 µM (inactive)	> 100 µM (inactive)	> 100 µM	> 100 µM (inactive)
C/C=C(\C)C(=O)OC1/C=C(\C)CC/C=C(\C)CC2OC(=O)C(C)(OC(C)=O)C12 (stereo not given)	> 100 µM (inactive)	> 100 µM (inactive)	> 100 µM (inactive)	> 100 µM (inactive)	> 100 µM (inactive)	> 100 µM (inactive)	> 100 µM (inactive)	> 100 µM (inactive)	> 100 µM (inactive)	> 100 µM (inactive)	> 100 µM (inactive)	> 100 µM (inactive)	> 100 µM (inactive)	59.7 µM (inactive)	> 100 µM (inactive)	> 100 µM (inactive)	> 100 µM (inactive)	> 100 µM (inactive)	> 100 µM	> 100 µM (inactive)
